Tested on: caspase-3
Assay: Caspase-3 activity in HUVECs (Example 7-2)
Assay type: cell-based, human
Settings: caspase-3-specific inhibitor added to samples
Protocol: With respect to the induction of endothelial cell apoptosis (active cell death) by the fas-1 domain, which had been confirmed in Example 7-1 above, the present inventors measured the activity of caspase-3, which is activated when apoptosis occurs, in the cells treated with the fas-1 domain.
HUVECs were spread onto a 100-mm plate (10 ml culture solution) with M199 medium containing 10% FBS, followed by incubation in a 37° C. incubator for 12 hours. After the incubation, the medium was removed from the plate, the cells were added with fresh medium containing 0.1% FBS and further incubated for 24 hours. The cell-containing medium was treated with 5 μM or 20 μM of the fas-1 domain (βig-h3 D-IV) prepared in Example 1. A control was treated with PBS buffer. At 12 hours and 24 hours after the treatment, the cells were harvested. The caspase-3 activity of the cells was measured with an EnzCheck Caspase-3 Assay Kit(#2) (Molecular Probe Co., Eugene, Oreg., USA). Moreover, to verify that measured values are attributed to caspase-3 activity, each of the samples was treated with DEVD-CHO (Molecular Probe Co., Eugene, Oreg., USA) as a caspase-3-specific inhibitor. The control was treated with DMSO.

With DEVD-CHO [reference compound] the “inhibition of caspase-3 activities of test groups and control group” value was “inhibited”.

From US20070167369A1, “Novel use of isolated polypeptide comprising four FAS-1 domains, EM1 domain and RGD motif” (KYUNGPOOK NATIONAL UNIVERSITY INDUSTRY-ACADEMIC COOPERATION …, priority 2004, published 2007)
